Tested on: proteins in HEK293T cells
Experiment: MS-based mapping of FFF probe-modified peptides (isoTOP, sites of labeling)
Assay type: binding, human
Conditions: for Labeled Peptide (residues) of NPM1 Nucleophosmin: P06748, PDB 2P1B
Procedure, shortened: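 Live cells treated with fragment probes (200-250 μM) in serum-free DMEM, with or without competitor ligands. Proteomes clicked to light/heavy biotin-TEV-azide, streptavidin-enriched, trypsin- then TEV-digested; probe-modified peptides identified by LC-MS/MS with any residue allowed as modified site, isoTOP ratios quantified by CIMAGE.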

C#CCCC1(CCC(=O)N2CCCCC2Cc2ccccc2)N=N1 (stereo not drawn) [probe 13, 1-(2-Benzylpiperidin-1-yl)-3-(3-(but-3-yn-1-yl)-3H-diazirin-3-yl)propan-1-one]
Labeled Peptide of GRWD1 Glutamate-rich WD repeat-containing protein 1 (Accession Q9BQ67, residues of probe-labeled peptide, family Uncategorized): 263-287 | Labeled Peptide (IMPDH2 Inosine-5-monophosphate dehydrogenase 2, residues of probe-modified peptide): 110-124 | Labeled Peptide (MAPRE1 (Q15691), residues of the probe-labeled peptide): 223-241 | Labeled Peptide (MCM2 (P49736), residues of the probe-labeled peptide): 797-807 | Labeled Peptide (METTL7A (Q9H8H3), residues of the probe-labeled peptide): 94-105 | Labeled Peptide (NTMT1 (Q9BV86), residues of the probe-labeled peptide): 167-185 | Labeled Peptide (NUP155 (O75694), residues of the probe-labeled peptide): 952-968 | Labeled Peptide (OPA1 (O60313), residues of the probe-labeled peptide): 801-818 | Labeled Peptide (residues) of NPM1 Nucleophosmin (peptide DELHIVEAEAMNYEGSPIK): 55-73 | Labeled Peptide (residues) of NPM1 Nucleophosmin (peptide MSVQPTVSLGGFEITPPVVLR): 81-101 | Labeled Peptide (P12268 IMPDH2 Inosine-5-monophosphate dehydrogenase 2): 110-124 | Labeled Peptide (P24666 ACP1 Low molecular weight phosphotyrosine protein phosp): 42-59 | Labeled Peptide (P31939 ATIC Bifunctional purine biosynthesis protein PURH): 178-194 | Labeled Peptide (residues) of PRDX2 Peroxiredoxin-2 (P32119, peptide TDEGIAYR, PDB 1QMV): 120-127 | Labeled Peptide (Q13867 BLMH Bleomycin hydrolase): 203-218 | Labeled Peptide (Q14240 EIF4A2 Eukaryotic initiation factor 4A-II): 70-83 | Labeled Peptide (protein ACP1 (P24666), residues of probe-labeled peptide): 42-59 | Labeled Peptide (protein ACP1 Low molecular weight phosphotyrosine protein phosp, residues of probe-labeled peptide): 42-59 | Labeled Peptide (protein ANP32A (Q10567), residues of probe-labeled peptide): 117-132 | Labeled Peptide (protein ANP32A Acidic leucine-rich nuclear phosphoprotein 32 fami, residues of probe-labeled peptide): 117-132 | Labeled Peptide (protein ANP32B (Q92688), residues of probe-labeled peptide): 117-132 | Labeled Peptide (protein AP1B1 (Q10567), residues of probe-labeled peptide): 902-913 | Labeled Peptide (protein ATIC (P31939), residues of probe-labeled peptide): 178-194 | Labeled Peptide (protein ATIC Bifunctional purine biosynthesis protein PURH, residues of probe-labeled peptide): 178-194 | Labeled Peptide (protein ATP5F1 (P24539), residues of probe-labeled peptide): 71-90 | Labeled Peptide (protein ATP6V1B2 (P21281), residues of probe-labeled peptide): 83-93 | Labeled Peptide (protein ATP6V1BE1 (P36543), residues of probe-labeled peptide): 200-212 | Labeled Peptide (protein BLMH (Q13867), residues of probe-labeled peptide): 203-218 | Labeled Peptide (protein BLMH Bleomycin hydrolase, residues of probe-labeled peptide): 203-218 | Labeled Peptide (protein CALM3 Calmodulin (P62158), residues of probe-labeled peptide): 128-149 | Labeled Peptide (protein CCT7 T-complex protein 1 subunit eta (Q99832), residues of probe-labeled peptide): 85-106 | Labeled Peptide (protein COPB1 Coatomer subunit beta (P53618), residues of probe-labeled peptide): 262-279 | Labeled Peptide (protein CSTF3 Cleavage stimulation factor subunit 3 (Q12996), residues of probe-labeled peptide): 440-464 | Labeled Peptide (protein DIABLO Diablo homolog, mitochondrial (Q9NR28), residues of probe-labeled peptide): 124-140 | Labeled Peptide (protein DIABLO Diablo homolog, mitochondrial, residues of probe-labeled peptide): 124-140 | Labeled Peptide (protein EEF1A1 Elongation factor 1-alpha 1 (P68104), residues of probe-labeled peptide): 135-146 | Labeled Peptide (protein EEF1G Elongation factor 1-gamma (P26641), residues of probe-labeled peptide): 379-400 | Labeled Peptide (protein EIF3L Eukaryotic translation initiation factor 3 submit (Q9Y262), residues of probe-labeled peptide): 404-419 | Labeled Peptide (protein EIF4A2 Eukaryotic initiation factor 4A-II (Q14240), residues of probe-labeled peptide): 70-83 | Labeled Peptide (protein EIF4A2 Eukaryotic initiation factor 4A-II, residues of probe-labeled peptide): 70-83 | Labeled Peptide (protein ERH Enhancer of rudimentary homolog (P84090), residues of probe-labeled peptide): 18-34 | Labeled Peptide (protein ERH Enhancer of rudimentary homolog, residues of probe-labeled peptide): 18-34 | Labeled Peptide (protein FKBP4 Peptidyl-prolyl cis-trans isomerase (Q02790), residues of probe-labeled peptide): 190-206 | Labeled Peptide (protein FKBP4 Peptidyl-prolyl cis-trans isomerase FKBP4, residues of probe-labeled peptide): 190-206 | Labeled Peptide (protein FKBP10 Peptidyl-prolyl cis-trans isomerase FKBP10 (Q96AY3), residues of probe-labeled peptide): 198-212 | Labeled Peptide (protein KPNA2 Importin subunit alpha-2, residues of the probe-labeled peptide): 301-315 | Labeled Peptide (protein NTMT1 N-terminal Xaa-Pro-Lys N-methyltransferase 1, residues of the probe-labeled peptide): 167-185 | Labeled Peptide (protein O43615 TIMM44 Mitochondrial import inner membrane translocase su): 428-439 | Labeled Peptide (protein P62241 RPS8 40S ribosomal protein S8): 158-170 | Labeled Peptide (protein P62314 SNRNP40 U5 small nuclear ribonucleoprotein Sm D1): 67-86 | Labeled Peptide (protein P62888 RPL30 60S ribosomal protein L30): 58-68 | Labeled Peptide (protein PDCD4 Programmed cell death protein 4 (Q53EL6)): 246-256 | Labeled Peptide (protein PDCD4 Programmed cell death protein 4, residues of the probe-labeled peptide): 246-256 | Labeled Peptide (protein PDS5A Sister chromatid cohesion protein PDS5 homolog A (Q29RF7)): 638-657 | Labeled Peptide (protein PFN1 Profilin-1 (P07737)): 39-54 | Labeled Peptide (protein PHGDH D-3-phosphoglycerate dehydrogenase (O43175)): 295-308 | Labeled Peptide (protein PMPCB Mitochondrial-processing peptidase subunit beta (O75439)): 406-424 | Labeled Peptide (protein PRDX2 Peroxiredoxin-2 (P32119)): 120-127 | Labeled Peptide (protein PRDX2 Peroxiredoxin-2, residues of the probe-labeled peptide): 120-127 | Labeled Peptide (protein PRMT1 Protein argine N-methyltransferase 1 (Q99873)): 380-391 | Labeled Peptide (protein PTPLAD1 3-hydroxyacyl-CoA dehydratase 3 (Q9P035)): 133-146 | Labeled Peptide (protein Q8N3U4 STAG2 Cohesin subunit SA-2): 273-290 | Labeled Peptide (protein Q96DI7 SNRNP40 U5 small nuclear ribonucleoprotein 40 kDa protein): 233-260 | Labeled Peptide (protein Q01082 SPTAN1 Spectrin beta chain, non-erythrocytic 1): 1706-1717 | Labeled Peptide (protein Q12931 TRAP1 Heat shock protein 75 kDa, mitochondrial): 603-619 | Labeled Peptide (protein Q92922 SMARCC1 SWI/SNF complex subunit SMARCC1): 894-905 | Labeled Peptide (protein RBC2 Replication (P35250)): 211-230 | Labeled Peptide (protein RCN1 Reticulocalbin-1 (Q15293)): 91-105 | Labeled Peptide (protein RPL30 60S ribosomal protein L30, residues of the probe-labeled peptide): 58-68 | Labeled Peptide (protein STAG2 Cohesin subunit SA-2, residues of the probe-modified peptide): 273-290 | Labeled Peptide (protein TIMM44 Mitochondrial import inner membrane translocase su, residues of the probe-modified peptide): 428-439 | Labeled Peptide (residues of probe-labeled peptide on TUBA4A Tubulin alpha-4A chain, Accession # P68366): 340-352

From US11535597B2, “Photoreactive ligands and uses thereof” (The Scripps Research Institute, priority 2017, dated 2022)
